In ChEMBL document CHEMBL3286271, “Synthesis and cytotoxic effect on cancer cell lines and macrophages of novel progesterone derivatives having an ester or a carbamate function at C-3 and C-17” (Eur J Med Chem, 2014):
Active and inactive are the calls of the source. The rule behind the calls is not given here.

Experiments:
[1] = (§1) Cytotoxicity against human HCT15 cells assessed as growth inhibition at 50 uM after 48 hrs by SRB method; type: functional; details: HCT-15, 48 h, read-out: GI
[2] = Cytotoxicity against mouse J774 cells assessed as growth inhibition at 50 uM after 48 hrs by SRB method; type: cell-based; details: read-out: GI
MCF7 = test: Cytotoxicity against human MCF7 cells assessed as growth inhibition at 50 uM after 48 hrs by SRB method; type: functional; details: for inhibition of growth at 50 µM: MCF7, 48 h, read-out: GI
PC-3 = test: Cytotoxicity against human PC3 cells assessed as growth inhibition at 50 uM after 48 hrs by SRB method; type: functional; details: PC-3, 48 h, read-out: GI
HCT-15 = test: as §1; type: functional

| Compound | inhibition of growth at 50 µM [1] [%] | inhibition at 48 h, 50 µM [2] [%] | inhibition of growth at 50 µM (MCF7) [%] | inhibition of growth at 50 µM (PC-3) [%] | growth inhibition (GI) (HCT-15) | growth inhibition (GI) (MCF7) |
| --- | --- | --- | --- | --- | --- | --- |
| CC(=O)[C@@]1(OC(=O)c2ccc(Br)cc2)CC[C@H]2[C@@H]3C=CC4=CC(=O)CC[C@]4(C)[C@H]3CC[C@@]21C | 53.9 | 57 | 44.4 | 84.7 |  |  |
| CC(=O)C1=CC[C@H]2[C@@H]3CC(=O)C4=C[C@@H](OC(=O)c5ccc(Cl)cc5)CC[C@]4(C)[C@H]3CC[C@]12C | 88.2 | 38.8 | 100 | 87.3 |  |  |
| CC(=O)N1CCN(c2ccc(OCC3COC(Cn4ccnc4)(c4ccc(Cl)cc4Cl)O3)cc2)CC1 (configuration not stated) [KETOCONAZOLE] | 90.6 | 54 | 95.2 | 88.5 |  |  |
| CC(=O)[C@@]1(OC(=O)c2ccc(F)cc2)CC[C@H]2[C@@H]3C=CC4=CC(=O)CC[C@]4(C)[C@H]3CC[C@@]21C | 35.6 | 100 | 29.2 | 30.9 |  |  |
| CC(=O)C1=CC[C@H]2[C@@H]3CC(=O)C4=C[C@@H](OC(=O)Nc5ccccc5)CC[C@]4(C)[C@H]3CC[C@]12C | 41.4 | 73.8 | 34.7 | 4.5 |  |  |
| CC(=O)C1=CC[C@H]2[C@@H]3CC(=O)C4=C[C@@H](OC(=O)Nc5ccc(Cl)cc5)CC[C@]4(C)[C@H]3CC[C@]12C | 65.3 | 92.4 | 13.7 | 63.4 |  |  |
| CC(=O)[C@@]1(OC(=O)Nc2ccc(Br)cc2)CC[C@H]2[C@@H]3C=CC4=CC(=O)CC[C@]4(C)[C@H]3CC[C@@]21C |  | 32 | 13.1 | 26.4 | inactive |  |
| CC(=O)C1=CC[C@H]2[C@@H]3CC(=O)C4=C[C@@H](OC(=O)Nc5ccc(Br)cc5)CC[C@]4(C)[C@H]3CC[C@]12C | 30 | 80.5 | 14 | 26.9 |  |  |
| CC(=O)[C@@]1(OC(=O)c2ccc(Cl)cc2)CC[C@H]2[C@@H]3C=CC4=CC(=O)CC[C@]4(C)[C@H]3CC[C@@]21C | 39.3 | 73.6 | 39.8 | 46.1 |  |  |
| CC(=O)C1=CC[C@H]2[C@@H]3CC(=O)C4=C[C@@H](OC(=O)c5ccc(I)cc5)CC[C@]4(C)[C@H]3CC[C@]12C | 67.3 | 61.1 | 100 | 64.1 |  |  |
| CC(=O)[C@@]1(OC(=O)c2ccc(I)cc2)CC[C@H]2[C@@H]3C=CC4=CC(=O)CC[C@]4(C)[C@H]3CC[C@@]21C | 27.5 | 74.3 | 22.6 | 30.8 |  |  |
| CC(=O)[C@@]1(OC(=O)Nc2ccc(Cl)cc2)CC[C@H]2[C@@H]3C=CC4=CC(=O)CC[C@]4(C)[C@H]3CC[C@@]21C |  | 36.9 | 11.2 | 15.8 | inactive |  |
| CC(=O)[C@@]1(OC(=O)Nc2ccc(F)cc2)CC[C@H]2[C@@H]3C=CC4=CC(=O)CC[C@]4(C)[C@H]3CC[C@@]21C |  | 43.4 | 20 | 33.4 | inactive |  |
| CC(=O)[C@@]1(OC(=O)Nc2ccc(I)cc2)CC[C@H]2[C@@H]3C=CC4=CC(=O)CC[C@]4(C)[C@H]3CC[C@@]21C |  | 21.7 |  | 17.8 | inactive | inactive |
| CC(=O)C1=CC[C@H]2[C@@H]3CC(=O)C4=C[C@@H](OC(=O)c5ccc(Br)cc5)CC[C@]4(C)[C@H]3CC[C@]12C | 55.9 | 60.9 | 86.2 | 51.9 |  |  |
| CC(=O)C1=CC[C@H]2[C@@H]3CC(=O)C4=C[C@@H](OC(=O)Nc5ccc(I)cc5)CC[C@]4(C)[C@H]3CC[C@]12C | 43.2 | 70.7 | 33.1 | 42.8 |  |  |
| CC(=O)C1=CC[C@H]2[C@@H]3CC(=O)C4=C[C@@H](O)CC[C@]4(C)[C@H]3CC[C@]12C | 67.7 | 98.9 | 63.5 | 70.6 |  |  |
| CC(=O)C1=CC[C@H]2[C@@H]3CC(=O)C4=C[C@@H](OC(=O)c5ccc(F)cc5)CC[C@]4(C)[C@H]3CC[C@]12C | 22.8 | 50 | 20.8 | 8.3 |  |  |
| CC(=O)[C@@]1(OC(=O)c2ccccc2)CC[C@H]2[C@@H]3C=CC4=CC(=O)CC[C@]4(C)[C@H]3CC[C@@]21C | 50.8 | 100 | 26.8 | 42.5 |  |  |
| CC(=O)C1=CC[C@H]2[C@@H]3CC(=O)C4=C[C@@H](OC(=O)Nc5ccc(F)cc5)CC[C@]4(C)[C@H]3CC[C@]12C | 60.1 | 78.3 | 34.6 | 33 |  |  |
| CC(=O)[C@@]1(OC(=O)Nc2ccccc2)CC[C@H]2[C@@H]3C=CC4=CC(=O)CC[C@]4(C)[C@H]3CC[C@@]21C | 45.3 | 48.2 | 51.3 | 96.6 |  |  |
| CC(=O)C1=CC[C@H]2[C@@H]3CC(=O)C4=C[C@@H](OC(=O)c5ccccc5)CC[C@]4(C)[C@H]3CC[C@]12C | 48.7 | 89.3 | 32.7 | 2.9 |  |  |
| CC(=O)[C@@]1(O)CC[C@H]2[C@@H]3C=CC4=CC(=O)CC[C@]4(C)[C@H]3CC[C@@]21C | 25 | 58.5 | 27.8 | 39.6 |  |  |
